Molecular target: T1, sodium ion channel (Nav1.7) (Homo sapiens, UniProt Q15858)
T1 construct: host or cells: HEK293
Assay: Blocking effect against sodium ion channel (Nav1.7), IonFlux16 auto patch clamp, hNav1.7 HEK293 cells
Type: cell-based
Conditions: peak current after 50 seconds treatment, eight concentrations
Summary of the method: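 HEK293 cells stably expressing human Nav1.7 were recorded by IonFlux16 automated patch clamp in extracellular solution (pH 7.45, final DMSO ≤0.3%). Peak current was measured after 50 s exposure to each of eight compound concentrations and expressed as percent inhibition relative to pre-compound current.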

T1 sequence (Q15858 whole entry): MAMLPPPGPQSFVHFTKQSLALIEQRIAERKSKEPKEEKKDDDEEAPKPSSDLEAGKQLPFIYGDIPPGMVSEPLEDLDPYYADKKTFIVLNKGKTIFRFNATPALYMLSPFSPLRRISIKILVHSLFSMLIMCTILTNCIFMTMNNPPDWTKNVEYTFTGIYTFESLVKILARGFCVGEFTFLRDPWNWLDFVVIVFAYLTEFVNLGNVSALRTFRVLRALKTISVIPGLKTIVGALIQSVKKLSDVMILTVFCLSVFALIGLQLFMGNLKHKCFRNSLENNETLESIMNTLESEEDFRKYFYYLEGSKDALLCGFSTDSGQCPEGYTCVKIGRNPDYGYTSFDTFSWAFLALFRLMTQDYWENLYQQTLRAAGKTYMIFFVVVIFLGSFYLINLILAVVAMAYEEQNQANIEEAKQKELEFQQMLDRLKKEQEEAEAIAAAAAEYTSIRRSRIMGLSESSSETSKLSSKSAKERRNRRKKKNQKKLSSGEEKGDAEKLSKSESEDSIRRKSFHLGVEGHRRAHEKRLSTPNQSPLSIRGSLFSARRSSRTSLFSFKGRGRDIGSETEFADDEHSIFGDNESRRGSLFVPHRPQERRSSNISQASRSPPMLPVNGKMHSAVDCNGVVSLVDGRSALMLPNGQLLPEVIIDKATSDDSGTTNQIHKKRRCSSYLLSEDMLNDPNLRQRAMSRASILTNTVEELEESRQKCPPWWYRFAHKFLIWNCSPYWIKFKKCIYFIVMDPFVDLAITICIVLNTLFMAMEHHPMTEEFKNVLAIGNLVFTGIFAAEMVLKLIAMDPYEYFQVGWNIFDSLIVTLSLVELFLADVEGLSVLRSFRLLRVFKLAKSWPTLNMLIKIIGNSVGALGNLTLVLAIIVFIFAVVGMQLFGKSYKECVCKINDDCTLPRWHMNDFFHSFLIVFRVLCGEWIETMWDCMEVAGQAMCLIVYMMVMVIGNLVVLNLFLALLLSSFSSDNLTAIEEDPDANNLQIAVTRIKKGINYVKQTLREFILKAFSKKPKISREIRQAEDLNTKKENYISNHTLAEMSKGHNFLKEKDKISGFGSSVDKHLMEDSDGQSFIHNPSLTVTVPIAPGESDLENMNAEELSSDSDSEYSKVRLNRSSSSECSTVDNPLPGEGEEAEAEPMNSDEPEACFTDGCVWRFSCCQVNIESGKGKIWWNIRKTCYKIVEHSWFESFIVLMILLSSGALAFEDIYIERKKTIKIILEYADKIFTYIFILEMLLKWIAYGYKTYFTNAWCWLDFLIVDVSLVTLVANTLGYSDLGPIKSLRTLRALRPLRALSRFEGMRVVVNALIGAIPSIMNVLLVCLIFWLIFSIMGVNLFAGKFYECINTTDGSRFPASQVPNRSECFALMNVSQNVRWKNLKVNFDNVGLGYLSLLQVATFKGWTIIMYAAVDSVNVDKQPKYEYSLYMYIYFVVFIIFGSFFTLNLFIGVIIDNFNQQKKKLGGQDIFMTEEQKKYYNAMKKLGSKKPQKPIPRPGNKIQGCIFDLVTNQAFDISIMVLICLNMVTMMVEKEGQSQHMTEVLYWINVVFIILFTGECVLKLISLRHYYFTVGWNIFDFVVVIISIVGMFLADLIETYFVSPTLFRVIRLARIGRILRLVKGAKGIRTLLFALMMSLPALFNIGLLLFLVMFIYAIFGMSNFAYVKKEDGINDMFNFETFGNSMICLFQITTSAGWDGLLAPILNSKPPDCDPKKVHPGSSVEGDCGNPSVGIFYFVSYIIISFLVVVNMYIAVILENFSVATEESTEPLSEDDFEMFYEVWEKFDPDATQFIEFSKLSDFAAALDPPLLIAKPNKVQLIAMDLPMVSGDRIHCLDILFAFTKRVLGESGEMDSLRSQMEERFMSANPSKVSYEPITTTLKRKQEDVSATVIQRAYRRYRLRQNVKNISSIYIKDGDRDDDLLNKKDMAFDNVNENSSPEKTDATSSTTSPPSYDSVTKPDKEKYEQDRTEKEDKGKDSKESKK

First: O=S(=O)(Nc1cscn1)c1cc(Cl)c(Oc2ccc(-c3ccc(F)cc3)nc2-c2ccoc2)cc1F [Example 131, 5-chloro-2-fluoro-4-((6-(4-fluorophenyl)-2-(furan-3-yl)pyridin-3-yl)oxy)-N-(thiazol-4-yl)benzenesulfonamide]
Second: Cn1nccc1-c1nc(-c2ccc(F)cc2)ccc1Oc1cc(F)c(S(=O)(=O)Nc2cscn2)cc1Cl [Example 135, 5-chloro-2-fluoro-4-((6-(4-fluorophenyl)-2-(1-methyl-1H-pyrazol-5-yl)pyridin-3-yl)oxy)-N-(thiazol-4-yl)benzenesulfonamide]
The IC50 of the first is lower: 51 to 100 nM for the first, over 100 nM for the second.

`O=S(=O)(Nc1cscn1)c1cc(Cl)c(Oc2ccc(-c3ccnc(F)c3)nc2-c2ccoc2)cc1F` [Example 132, 5-chloro-2-fluoro-4-((2′-fluoro-6-(furan-3-yl)-[2,4′-bipyridin]-5-yl)oxy)-N-(thiazol-4-yl)benzenesulfonamide] and `O=S(=O)(Nc1cscn1)c1cc(Cl)c(Oc2ccc(-c3ccccc3F)nc2-c2ccoc2)cc1F` [Example 133, 5-chloro-2-fluoro-4-((6-(2-fluorophenyl)-2-(furan-3-yl)pyridin-3-yl)oxy)-N-(thiazol-4-yl)benzenesulfonamide] cannot be ordered by IC50: over 100 nM for the first, over 100 nM for the second.

`Cn1nccc1-c1nc(-c2ccc(F)nc2F)ccc1Oc1cc(F)c(S(=O)(=O)Nc2cscn2)cc1Cl` [Example 134, 5-chloro-4-((2′,6′-difluoro-6-(1-methyl-1H-pyrazol-5-yl)-[2,3′-bipyridin]-5-yl)oxy)-2-fluoro-N-(thiazol-4-yl)benzenesulfonamide] and `Cn1nccc1-c1nc(-c2ccc(F)nc2)ccc1Oc1cc(F)c(S(=O)(=O)Nc2cscn2)cc1Cl` [Example 137, 5-chloro-2-fluoro-4-((6′-fluoro-6-(1-methyl-1H-pyrazol-5-yl)-[2,3′-bipyridin]-5-yl)oxy)-N-(thiazol-4-yl)benzenesulfonamide] cannot be ordered by IC50: over 100 nM for the first, over 100 nM for the second.

`Cn1nccc1-c1nc(-c2ccccc2F)ccc1Oc1cc(F)c(S(=O)(=O)Nc2cscn2)cc1Cl` [Example 136, 5-chloro-2-fluoro-4-((6-(2-fluorophenyl)-2-(1-methyl-1H-pyrazol-5-yl)pyridin-3-yl)oxy)-N-(thiazol-4-yl)benzenesulfonamide] and `Cn1nccc1-c1ccccc1C(O)c1ccc(S(=O)(=O)Nc2nccs2)cc1F` (stereo not shown) [Example 142, 3-fluoro-4-(hydroxy(2-(1-methyl-1H-pyrazol-5-yl)phenyl)methyl)-N-(thiazol-2-yl)benzenesulfonamide] cannot be ordered by IC50: over 100 nM for the first, over 100 nM for the second.

`Cn1nccc1-c1cc(Cl)ccc1C(O)c1ccc(S(=O)(=O)Nc2nccs2)cc1` (stereo not shown) [Example 138, 4-((4-chloro-2-(1-methyl-1H-pyrazol-5-yl)phenyl)(hydroxy)methyl)-N-(thiazol-2-yl)benzenesulfonamide] and `Cn1nccc1-c1cc(Cl)ccc1C(O)c1ccc(S(=O)(=O)Nc2nccs2)cc1F` (stereo not shown) [Example 144, 4-((4-chloro-2-(1-methyl-1H-pyrazol-5-yl)phenyl)(hydroxy)methyl)-3-fluoro-N-(thiazol-2-yl)benzenesulfonamide] cannot be ordered by IC50: over 100 nM for the first, over 100 nM for the second.

`O=S(=O)(Nc1nccs1)c1ccc(C(O)c2ccc(Cl)cc2-c2cn[nH]c2)c(F)c1` (stereo not shown) [Example 139, 4-((4-chloro-2-(1H-pyrazol-4-yl)phenyl)(hydroxy)methyl)-3-fluoro-N-(thiazol-2-yl)benzenesulfonamide] and `O=S(=O)(Nc1nccs1)c1ccc(C(O)c2ccc(Cl)cc2-c2cccnc2)c(F)c1` (stereo not shown) [Example 145, 4-((4-chloro-2-(pyridin-3-yl)phenyl)(hydroxy)methyl)-3-fluoro-N-(thiazol-2-yl)benzenesulfonamide] cannot be ordered by IC50: over 100 nM for the first, over 100 nM for the second.

`O=S(=O)(Nc1nccs1)c1ccc(C(O)c2ccc(Cl)cc2-c2ccoc2)c(F)c1` (stereo not shown) [Example 140, 4-((4-chloro-2-(furan-3-yl)phenyl)(hydroxy)methyl)-3-fluoro-N-(thiazol-2-yl)benzenesulfonamide] and `O=S(=O)(Nc1nccs1)c1ccc(C(O)c2ccc(Cl)cc2-c2ccncc2)c(F)c1` (stereo not shown) [Example 146, 4-((4-chloro-2-(pyridin-4-yl)phenyl)(hydroxy)methyl)-3-fluoro-N-(thiazol-2-yl)benzenesulfonamide] cannot be ordered by IC50: over 100 nM for the first, over 100 nM for the second.

`O=S(=O)(Nc1nccs1)c1ccc(C(O)c2ccc(-c3ccoc3)cc2-c2ccoc2)c(F)c1` (stereo not shown) [Example 141, 4-((2,4-di(furan-3-yl)phenyl)(hydroxy)methyl)-3-fluoro-N-(thiazol-2-yl)benzenesulfonamide] and `O=S(=O)(Nc1nccs1)c1ccc(C(O)c2ccc(-c3ccoc3)cc2-c2ccoc2)cc1` (stereo not shown) [Example 149, 4-((2,4-di(furan-3-yl)phenyl)(hydroxy)methyl)-N-(thiazol-2-yl)benzenesulfonamide] cannot be ordered by IC50: over 100 nM for the first, over 100 nM for the second.

First: O=S(=O)(Nc1nccs1)c1ccc(C(O)c2ccc(Cl)cc2-c2ccoc2)cc1 (stereo not shown) [Example 143, 4-((4-chloro-2-(furan-3-yl)phenyl)(hydroxy)methyl)-N-(thiazol-2-yl)benzenesulfonamide]
Second: O=S(=O)(Nc1nccs1)c1ccc(C(O)c2ccc(Cl)cc2-c2ccncc2)cc1 (stereo not shown) [Example 147, 4-((4-chloro-2-(pyridin-4-yl)phenyl)(hydroxy)methyl)-N-(thiazol-2-yl)benzenesulfonamide]
The IC50 of the first is lower: under 50 nM for the first, over 100 nM for the second.

`O=S(=O)(Nc1nccs1)c1ccc(C(O)c2ccc(Cl)cc2-c2cccnc2)cc1` (stereo not shown) [Example 148, 4-((4-chloro-2-(pyridin-3-yl)phenyl)(hydroxy)methyl)-N-(thiazol-2-yl)benzenesulfonamide] and `O=S(=O)(Nc1nccs1)c1ccc(C(O)c2ccc(-c3cccnc3F)cc2-c2ccoc2)cc1` (stereo not shown) [Example 150, 4-((4-(2-fluoropyridin-3-yl)-2-(furan-3-yl)phenyl)(hydroxy)methyl)-N-(thiazol-2-yl)benzenesulfonamide] cannot be ordered by IC50: over 100 nM for the first, over 100 nM for the second.

First: O=S(=O)(Nc1nccs1)c1ccc(C(O)c2ccc(-c3ccc(F)nc3)cc2-c2ccoc2)cc1 (stereo not shown) [Example 151, 4-((4-(6-fluoropyridin-3-yl)-2-(furan-3-yl)phenyl)(hydroxy)methyl)-N-(thiazol-2-yl)benzenesulfonamide]
Second: O=S(=O)(Nc1nccs1)c1ccc(C(O)c2ccc(-c3cccc(F)c3)cc2-c2ccoc2)cc1 (stereo not shown) [Example 153, 4-((3′-fluoro-3-(furan-3-yl)-[1,1′-biphenyl]-4-yl)(hydroxy)methyl)-N-(thiazol-2-yl)benzenesulfonamide]
The IC50 of the first is higher: over 100 nM for the first, 51 to 100 nM for the second. The second is the more potent here.

`O=S(=O)(Nc1nccs1)c1ccc(C(O)c2ccc(-c3ccccc3F)cc2-c2ccoc2)cc1` (stereo not shown) [Example 152, 4-((2′-fluoro-3-(furan-3-yl)-[1,1′-biphenyl]-4-yl)(hydroxy)methyl)-N-(thiazol-2-yl)benzenesulfonamide] and `O=S(=O)(Nc1nccs1)c1ccc(C(O)c2ccc(-c3ccc(F)cc3)cc2-c2ccoc2)cc1` (stereo not shown) [Example 154, 4-((4′-fluoro-3-(furan-3-yl)-[1,1′-biphenyl]-4-yl)(hydroxy)methyl)-N-(thiazol-2-yl)benzenesulfonamide] cannot be ordered by IC50: over 100 nM for the first, over 100 nM for the second.

`O=S(=O)(Nc1nccs1)c1ccc(C(O)c2cccnc2-c2ccoc2)c(F)c1` (stereo not shown) [Example 155, 3-fluoro-4-((2-(furan-3-yl)pyridin-3-yl)(hydroxy)methyl)-N-(thiazol-2-yl)benzenesulfonamide] and `O=S(=O)(Nc1nccs1)c1ccc(C(O)c2cccnc2-c2ccccc2)c(F)c1` (stereo not shown) [Example 157, 3-fluoro-4-(hydroxy(2-phenylpyridin-3-yl)methyl)-N-(thiazol-2-yl)benzenesulfonamide] cannot be ordered by IC50: over 100 nM for the first, over 100 nM for the second.

`O=S(=O)(Nc1nccs1)c1ccc(C(O)c2cccnc2-c2ccoc2)cc1` (stereo not shown) [Example 156, 4-((2-(furan-3-yl)pyridin-3-yl)(hydroxy)methyl)-N-(thiazol-2-yl)benzenesulfonamide] showed an IC50 of over 100 nM.

System: not given
Assay: not given
Conditions: neuropathic pain patients; cited from earlier work

In the case of `NCC1(CC(=O)O)CCCCC1` [gabapentin], the “effective for share of the patients” value is given as 60%.
